Source: US8945540B2, “Compositions for enhancing the antibacterial activity of myeloperoxidase and methods of use thereof” (Exoxemis, Inc., priority 2008, dated 2015)

Assays:
[1] = test system: Staphylococcus aureus; assay: Microbicidal activity of the myeloperoxidase system (p-MPO, glucose oxidase, glucose) with amino acids in the presence of blood, CFU plate counts; synergy determination from these CFU; type: cell-based; settings: for Average Viability CFU/ml 50 min / Log Reduction 50 min: single amino acid 2.5 mM, MPO 4.7 U/ml, GO 4.2 U/ml
Method in brief: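 Staphylococcus aureus grown 24 hours in TSB at 35° C was washed in saline and added at a final 2-3×10^7 CFU per mL. The bacteria were mixed in 1 mL reactions with porcine myeloperoxidase, glucose oxidase, amino acids, 150 mM sodium chloride and 3% venous whole blood. Adding glucose to 150 mM started killing. After catalase addition, survivors were counted by serial dilution plating on TSA at 37° C for 24 hours.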

[2] = test system: Bacillus subtilis spores; assay: Myeloperoxidase system with beta alanine and L-alanine against spores in the presence of blood; type: cell-based; settings: 2 hours, MPO 25 μg/mL (9.4 U/mL), GO 8.3 U/mL
Experimental: The effect of a two-way combination of beta alanine and L-alanine, as potential enhancing agents, for MPO microbicidal action against Bacillus subtilis spores in the presence of blood, was determined following the procedure of Example 2. However, in this case each test contained a single low concentration of MPO (25 μg/mL or 9.4 U/mL) and glucose oxidase (8.3 U/mL). […] The effect of both L-alanine and beta alanine alone on the myeloperoxidase antimicrobial activity against Bacillus subtilis spores was tested for comparison.
The nature of the relationship between beta alanine and L-alanine was examined following the synergy determination method described above.

[3] = test system: Candida albicans; assay: Myeloperoxidase system with amino acids in the presence of blood (Example 9); type: cell-based; settings: MPO 25 μg/mL, GO 8.3 U/mL, L-valine/glycine 2.5 μmol/mL each, beta alanine 5 μmol/mL
Experimental: (§1) The effect of two way combinations of amino acids glycine and valine, and individually beta alanine, as potential enhancing agents for MPO microbicidal action against Pseudomonas aeruginosa, Staphylococcus aureus and Candida albicans, in the presence of blood, was determined following the procedure of Example 2. Each organism was tested against a single low concentration of MPO (25 μg/mL or 9.4 U/mL) and glucose oxidase (8.3 U/mL). The two amino acid activators were each added at a final concentration of 2.5 μmol/mL and the individual amino acid, beta alanine, was tested at a single concentration of 5 μmol/mL. The effect of no amino acid containing formulations on the myeloperoxidase antimicrobial activity against these organisms was tested for comparison.

[4] = test system: Pseudomonas aeruginosa; assay: as above; type: cell-based; settings: 60 minutes, MPO 25 μg/mL, GO 8.3 U/mL, L-valine/glycine 2.5 μmol/mL each, beta alanine 5 mM
Experimental: as §1

[5] = test system: Staphylococcus aureus; assay: Control: microbicidal activity of the amino acid or analogue alone (no glucose, MPO, glucose oxidase) in the presence of blood; type: cell-based; settings: amino acid alone 5 mM; MPO 0; GO 0; no glucose; blood; without replication
Excerpt: As a control to determine the microbicidal activity of the amino acids alone, the foregoing procedure was followed without replication, except in the absence of glucose, MPO, and glucose oxidase.

[6] = test system: Acinetobacter species; assay: MIC, modified CLSI broth microdilution; type: cell-based; settings: Acintobacter spp., 29 clinical isolates
Excerpt: (§2) All clinical isolates were obtained from the culture collection of Eurofins Medinet Anti-Infective Services (Herndon, Va.), and represent diverse geographical regions. […] Escherichia coli ATCC 25922, Staphylococcus aureus ATCC 25923, S. aureus ATCC 29213, Pseudomonas aeruginosa ATCC 27853, and Enterococcus faecalis ATCC 29212 were used as quality control strains for the Enhanced MPO Solution and comparator agents to validate the modified Clinical and Laboratory Standards Institute (CLSI, formally NCCLS) broth microdilution method.
(§3) Modifications were made to the standard broth microdilution method to accommodate the rapid in vitro activity of the Enhanced MPO Solution as described below. Each antimicrobial agent and Concentrate solution was diluted in double strength cation-adjusted Mueller-Hinton Broth (CAMHB) and dispensed in mircrodilution trays. All β-hemolytic streptococci were tested in double strength CAMHB supplemented with 5% lysed horse blood. Isolates were prepared by suspending several colonies (four to six) from an overnight culture on Trypticase Soy Agar (TSA) with 5% sheep blood into sterile saline and the density adjusted to a 0.5 McFarland standard (˜10^8 CFU/ml). Standardized bacterial suspensions were further diluted in double strength Diluent solution so that approximately 5×10^5 CFU/ml was mixed with serial drug dilutions. […]

[7] = test system: E. coli; assay: MIC, modified CLSI broth microdilution; type: cell-based, Escherichia coli
Excerpt: All clinical isolates were obtained from the culture collection of Eurofins Medinet Anti-Infective Services (Herndon, Va.), and represent diverse geographical regions. They were originally derived from clinical specimens and identified using standard microbiological methods (see Table 33 below for details). Escherichia coli ATCC 25922, Staphylococcus aureus ATCC 25923, S. aureus ATCC 29213, Pseudomonas aeruginosa ATCC 27853, and Enterococcus faecalis ATCC 29212 were used as quality control strains for the Enhanced MPO Solution and comparator agents to validate the modified Clinical and Laboratory Standards Institute (CLSI, formally NCCLS) broth microdilution method.
Modifications were made to the standard broth microdilution method to accommodate the rapid in vitro activity of the Enhanced MPO Solution as described below. Each antimicrobial agent and Concentrate solution was diluted in double strength cation-adjusted Mueller-Hinton Broth (CAMHB) and dispensed in mircrodilution trays. All β-hemolytic streptococci were tested in double strength CAMHB supplemented with 5% lysed horse blood. Isolates were prepared by suspending several colonies (four to six) from an overnight culture on Trypticase Soy Agar (TSA) with 5% sheep blood into sterile saline and the density adjusted to a 0.5 McFarland standard (˜10^8 CFU/ml). Standardized bacterial suspensions were further diluted in double strength Diluent solution so that approximately 5×10^5 CFU/ml was mixed with serial drug dilutions. The addition of Diluent solution to the Concentrate solution activates the enzyme system, which in turn exerts its rapid mode of action. The microdilution trays were incubated in ambient air at 35° C. for 18 to 24 h.
MIC ranges were established for the Enhanced MPO Solution by testing over 20 replicates of one lot of the Enhanced MPO Solution against S. aureus ATCC 29213 and E. coli ATCC 25922. Quality control parameters were then determined for the Enhanced MPO Solution by testing three lots of the Concentrate solution used for preparation of the final Enhanced MPO Solution formulation. Testing was performed in duplicate against S. aureus ATCC 29213 and E. coli ATCC 25922. The effects of modifying the standard broth microdilution test were also assessed with antibiotics with known quality control limits to validate the CLSI broth microdilution method.

[8] = test system: P. aeruginosa; assay: MIC, modified CLSI broth microdilution; type: cell-based; settings: Pseudomonas aeruginosa, 53 clinical isolates
Experimental: (§4) Modifications were made to the standard broth microdilution method to accommodate the rapid in vitro activity of the Enhanced MPO Solution as described below. Each antimicrobial agent and Concentrate solution was diluted in double strength cation-adjusted Mueller-Hinton Broth (CAMHB) and dispensed in mircrodilution trays. All β-hemolytic streptococci were tested in double strength CAMHB supplemented with 5% lysed horse blood. Isolates were prepared by suspending several colonies (four to six) from an overnight culture on Trypticase Soy Agar (TSA) with 5% sheep blood into sterile saline and the density adjusted to a 0.5 McFarland standard (˜10^8 CFU/ml). Standardized bacterial suspensions were further diluted in double strength Diluent solution so that approximately 5×10^5 CFU/ml was mixed with serial drug dilutions. […] The microdilution trays were incubated in ambient air at 35° C. for 18 to 24 h.

[9] = test system: Proteus mirabilis; assay: MIC, modified CLSI broth microdilution; type: cell-based; settings: 24 clinical isolates
Excerpt: as §2, §3

[10] = test system: Pasteurella multocida; assay: MIC, modified CLSI broth microdilution; type: cell-based; settings: 5 clinical isolates, range for all strains tested
Experimental: as §4

[11] = test system: Klebsiella pneumoniae; assay: MIC, modified CLSI broth microdilution; type: cell-based; settings: 31 clinical isolates
Excerpt: as §2, §3

[12] = test system: Citrobacter freundii; assay: MIC, modified CLSI broth microdilution; type: cell-based; settings: 20 clinical isolates
Excerpt: as §2, §3

[13] = test system: Enterobacter cloacae; assay: MIC, modified CLSI broth microdilution; type: cell-based; settings: 21 clinical isolates
Excerpt: as §2, §3

[14] = test system: Aeromonas hydrophilia; assay: MIC, modified CLSI broth microdilution; type: cell-based; settings: 5 clinical isolates, range for all strains tested
Experimental: as §4

[15] = Table 4, amino acid 5 mM (none: 0 mM), MPO 38 U/ml, GO 33.3 U/ml, blood
[16] = Table 14, in the presence of blood, 50 min
[17] = Escherichia coli, 52 clinical isolates

NCCC(=O)O [Beta alanine]
Log 10 (CFU + 1) Survivors ([1]; MPO 25 μg/mL, AA 5 mM, 30 min): 0.0
Log 10 (CFU + 1) Survivors ([1]; MPO 25 μg/mL, AA 5 mM, 60 min): 0.0
Log 10 (CFU + 1) Survivors ([1]; MPO 25 μg/mL, AA […], 30 min): 0.0
Log 10 (CFU + 1) Survivors ([1]; MPO 25 μg/mL, AA […], 60 min): 0.0
Log 10 (CFU + 1) Survivors ([1]; MPO 100 μg/mL, AA 5 mM, 30 min): 0.0
Log 10 (CFU + 1) Survivors ([1]; MPO 100 μg/mL, AA 5 mM, 60 min): 0.0
Log 10 (CFU + 1) Survivors ([1]; MPO 100 μg/mL, AA 20 mM, 30 min): 0.0
Log 10 (CFU + 1) Survivors ([1]; MPO 100 μg/mL, AA 20 mM, 60 min): 0.0
Average Viability CFU/ml 60 min [1, 15]: 0 CFU/ml
Log Reduction 60 min [1, 15]: 7.4
Average Viability CFU/ml 50 min [1, 16]: 6000000 CFU/ml
Log Reduction 50 min [1, 16]: 0.7
Average Viability CFU/ml 50 min ([1]; blood): 505000 CFU/ml
Log Reduction 50 min ([1]; blood): 1.7
increased performance over the MPO system without amino acids ([1]; within 30 minutes, MPO 25 μg/mL, GO 8.3 U/mL, blood, 5 μmol/mL): 6.8 logs
kill of S. aureus (in words) ([1]; within 60 minutes, lower concentrations of amino acid and MPO, blood): complete kill
CFU survivors [2]: 3100000 CFU
improvement in microbicidal activity over the MPO system without amino acids [3]: 1.9 logs
enhancing effect over the MPO system without amino acids [4]: 4.6 logs
Average Viability CFU/ml 60 min [5]: 25500000 CFU/ml
Log Reduction 60 min [5]: 0.0

gentamicin
MIC 50% [6]: 8 µg/mL
MIC 90% [6]: >32 µg/mL
MIC by the modified method versus published quality control ranges ([7]; E. coli ATCC 25922, inoculum prepared in Diluent solution): within previously published quality control ranges
MIC 50% [7, 17]: 4 µg/mL
MIC 90% [7, 17]: >32 µg/mL
MIC 50% [8]: 4 µg/mL
MIC 90% [8]: 16 µg/mL
MIC 50% [9]: 8 µg/mL
MIC 90% [9]: 8 µg/mL
MIC Range [10]: 2 to 16 µg/mL
MIC 50% [11]: 4 µg/mL
MIC 90% [11]: >32 µg/mL
MIC 50% [12]: 2 µg/mL
MIC 90% [12]: 4 µg/mL
MIC 50% [13]: 2 µg/mL
MIC 90% [13]: 8 µg/mL
MIC Range [14]: 1 to 4 µg/mL
